Results published in ChEMBL document CHEMBL2429768, “Eco-friendly synthesis and antimicrobial activities of substituted-5-(1H-indol-3-yl)methylene)-2,2-dimethyl-1,3-dioxane-4,6-dione derivatives” (2013).
In brackets after ≈: the same amount, converted by molar mass.

What was measured:
Type in all cases: functional
Aspergillus flavus [1] = assay: Antifungal activity against Aspergillus flavus at 50 ug/ml after 72 hrs by agar well diffusion method; settings: read-out: DIZ
Klebsiella pneumoniae [2] = assay: Antibacterial activity against Klebsiella pneumoniae after 24 hrs by agar well diffusion method
Aspergillus flavus [3] = assay: Antifungal activity against Aspergillus flavus at 200 ug/ml after 72 hrs by agar well diffusion method; settings: read-out: DIZ
Aspergillus niger [4] = assay: Antifungal activity against Aspergillus niger at 50 ug/ml after 72 hrs by agar well diffusion method; settings: read-out: DIZ
Aspergillus flavus [5] = assay: Antifungal activity against Aspergillus flavus at 500 ug/ml after 72 hrs by agar well diffusion method; settings: read-out: DIZ
Rhizoctonia solani [6] = assay: Antifungal activity against Rhizoctonia solani at 50 ug/ml after 72 hrs by agar well diffusion method; settings: read-out: DIZ
Aspergillus niger [7] = assay: Antifungal activity against Aspergillus niger at 300 ug/ml after 72 hrs by agar well diffusion method; settings: read-out: DIZ
Staphylococcus aureus [8] = assay: Antibacterial activity against Staphylococcus aureus ATCC 6538 at 50 ug/ml after 24 hrs by agar well diffusion method; settings: ATCC 6538, 24 h, read-out: DIZ
Klebsiella pneumoniae [9] = assay: Antibacterial activity against Klebsiella pneumoniae at 300 ug/ml after 24 hrs by agar well diffusion method; settings: read-out: DIZ
Klebsiella pneumoniae [10] = assay: Antibacterial activity against Klebsiella pneumoniae at 200 ug/ml after 24 hrs by agar well diffusion method; settings: read-out: DIZ
Klebsiella pneumoniae [11] = assay: Antibacterial activity against Klebsiella pneumoniae at 500 ug/ml after 24 hrs by agar well diffusion method; settings: read-out: DIZ
Escherichia coli [12] = assay: Antibacterial activity against Escherichia coli ATCC 8739 at 500 ug/ml after 24 hrs by agar well diffusion method; settings: ATCC 8739, 24 h, read-out: DIZ
Klebsiella pneumoniae [13] = assay: Antibacterial activity against Klebsiella pneumoniae at 50 ug/ml after 24 hrs by agar well diffusion method; settings: read-out: DIZ
Fusarium oxysporum [14] = assay: Antifungal activity against Fusarium oxysporum at 50 ug/ml after 72 hrs by agar well diffusion method; settings: read-out: DIZ
Escherichia coli [15] = assay: Antibacterial activity against Escherichia coli ATCC 8739 at 200 ug/ml after 24 hrs by agar well diffusion method; settings: ATCC 8739, 24 h, read-out: DIZ
Bacillus subtilis [16] = assay: Antibacterial activity against Bacillus subtilis at 100 ug/ml after 24 hrs by agar well diffusion method; settings: read-out: DIZ
Bacillus subtilis [17] = assay: Antibacterial activity against Bacillus subtilis after 24 hrs by agar well diffusion method
Klebsiella pneumoniae [18] = assay: Antibacterial activity against Klebsiella pneumoniae at 100 ug/ml after 24 hrs by agar well diffusion method; settings: read-out: DIZ
Staphylococcus aureus [19] = assay: Antibacterial activity against Staphylococcus aureus ATCC 6538 at 100 ug/ml after 24 hrs by agar well diffusion method; settings: ATCC 6538, 24 h, read-out: DIZ
Fusarium oxysporum [20] = assay: Antifungal activity against Fusarium oxysporum at 100 ug/ml after 72 hrs by agar well diffusion method; settings: read-out: DIZ
Rhizoctonia solani [21] = assay: Antifungal activity against Rhizoctonia solani at 500 ug/ml after 72 hrs by agar well diffusion method; settings: read-out: DIZ
Escherichia coli [22] = assay: Antibacterial activity against Escherichia coli ATCC 8739 at 50 ug/ml after 24 hrs by agar well diffusion method; settings: ATCC 8739, 24 h, read-out: DIZ
Fusarium oxysporum [23] = assay: Antifungal activity against Fusarium oxysporum at 500 ug/ml after 72 hrs by agar well diffusion method; settings: read-out: DIZ
Rhizoctonia solani [24] = assay: Antifungal activity against Rhizoctonia solani at 200 ug/ml after 72 hrs by agar well diffusion method; settings: read-out: DIZ
Staphylococcus aureus [25] = assay: Antibacterial activity against Staphylococcus aureus ATCC 6538 at 200 ug/ml after 24 hrs by agar well diffusion method; settings: ATCC 6538, 24 h, read-out: DIZ
Aspergillus flavus [26] = assay: Antifungal activity against Aspergillus flavus at 300 ug/ml after 72 hrs by agar well diffusion method; settings: read-out: DIZ
Bacillus subtilis [27] = assay: Antibacterial activity against Bacillus subtilis at 300 ug/ml after 24 hrs by agar well diffusion method; settings: read-out: DIZ
Bacillus subtilis [28] = assay: Antibacterial activity against Bacillus subtilis at 200 ug/ml after 24 hrs by agar well diffusion method; settings: read-out: DIZ
Rhizoctonia solani [29] = assay: Antifungal activity against Rhizoctonia solani at 300 ug/ml after 72 hrs by agar well diffusion method; settings: read-out: DIZ
Escherichia coli [30] = assay: Antibacterial activity against Escherichia coli ATCC 8739 after 24 hrs by agar well diffusion method; settings: ATCC 8739, 24 h
Aspergillus flavus [31] = assay: Antifungal activity against Aspergillus flavus after 72 hrs by agar well diffusion method
Fusarium oxysporum [32] = assay: Antifungal activity against Fusarium oxysporum at 300 ug/ml after 72 hrs by agar well diffusion method; settings: read-out: DIZ
Rhizoctonia solani [33] = assay: Antifungal activity against Rhizoctonia solani after 72 hrs by agar well diffusion method
Staphylococcus aureus [34] = assay: Antibacterial activity against Staphylococcus aureus ATCC 6538 after 24 hrs by agar well diffusion method; settings: ATCC 6538, 24 h
Escherichia coli [35] = assay: Antibacterial activity against Escherichia coli ATCC 8739 at 100 ug/ml after 24 hrs by agar well diffusion method; settings: ATCC 8739, 24 h, read-out: DIZ
Escherichia coli [36] = assay: Antibacterial activity against Escherichia coli ATCC 8739 at 300 ug/ml after 24 hrs by agar well diffusion method; settings: ATCC 8739, 24 h, read-out: DIZ
Aspergillus niger [37] = assay: Antifungal activity against Aspergillus niger at 200 ug/ml after 72 hrs by agar well diffusion method; settings: read-out: DIZ
Staphylococcus aureus [38] = assay: Antibacterial activity against Staphylococcus aureus ATCC 6538 at 300 ug/ml after 24 hrs by agar well diffusion method; settings: ATCC 6538, 24 h, read-out: DIZ
Aspergillus niger [39] = assay: Antifungal activity against Aspergillus niger at 100 ug/ml after 72 hrs by agar well diffusion method; settings: read-out: DIZ
Rhizoctonia solani [40] = assay: Antifungal activity against Rhizoctonia solani at 100 ug/ml after 72 hrs by agar well diffusion method; settings: read-out: DIZ
Fusarium oxysporum [41] = assay: Antifungal activity against Fusarium oxysporum after 72 hrs by agar well diffusion method
Fusarium oxysporum [42] = assay: Antifungal activity against Fusarium oxysporum at 200 ug/ml after 72 hrs by agar well diffusion method; settings: read-out: DIZ
Staphylococcus aureus [43] = assay: Antibacterial activity against Staphylococcus aureus ATCC 6538 at 500 ug/ml after 24 hrs by agar well diffusion method; settings: ATCC 6538, 24 h, read-out: DIZ
Bacillus subtilis [44] = assay: Antibacterial activity against Bacillus subtilis at 500 ug/ml after 24 hrs by agar well diffusion method; settings: read-out: DIZ
Bacillus subtilis [45] = assay: Antibacterial activity against Bacillus subtilis at 50 ug/ml after 24 hrs by agar well diffusion method; settings: read-out: DIZ
Aspergillus flavus [46] = assay: Antifungal activity against Aspergillus flavus at 100 ug/ml after 72 hrs by agar well diffusion method; settings: read-out: DIZ
Aspergillus niger [47] = assay: Antifungal activity against Aspergillus niger at 500 ug/ml after 72 hrs by agar well diffusion method; settings: read-out: DIZ
Aspergillus niger [48] = assay: Antifungal activity against Aspergillus niger after 72 hrs by agar well diffusion method

MIC (Klebsiella pneumoniae [2]): 10 µg/mL (≈ 33.2 µM)
MIC (Bacillus subtilis [17]): 20 µg/mL (≈ 66.4 µM)
MIC (Escherichia coli [30]): 10 µg/mL (≈ 33.2 µM)
MIC (Aspergillus flavus [31]): 35 µg/mL (≈ 116 µM)
MIC (Rhizoctonia solani [33]): 25 µg/mL (≈ 83 µM)
MIC (Staphylococcus aureus [34]): 20 µg/mL (≈ 66.4 µM)
MIC (Fusarium oxysporum [41]): 25 µg/mL (≈ 83 µM)
MIC (Aspergillus niger [48]): 30 µg/mL (≈ 99.6 µM)
SMILES: COc1ccc2[nH]cc(C=C3C(=O)OC(C)(C)OC3=O)c2c1
zone of inhibition at 50 µg/mL (Aspergillus flavus [1]): 5 mm
zone of inhibition at 200 µg/mL (Aspergillus flavus [3]): 12 mm
zone of inhibition at 50 µg/mL (Aspergillus niger [4]): 7 mm
zone of inhibition at 500 µg/mL (Aspergillus flavus [5]): 22 mm
zone of inhibition at 50 µg/mL (Rhizoctonia solani [6]): 10 mm
zone of inhibition at 300 µg/mL (Aspergillus niger [7]): 14 mm
zone of inhibition at 50 µg/mL (Staphylococcus aureus [8]): 8 mm
zone of inhibition at 300 µg/mL (Klebsiella pneumoniae [9]): 25 mm
zone of inhibition at 200 µg/mL (Klebsiella pneumoniae [10]): 20 mm
zone of inhibition at 500 µg/mL (Klebsiella pneumoniae [11]): 34 mm
zone of inhibition at 500 µg/mL (Escherichia coli [12]): 33 mm
zone of inhibition at 50 µg/mL (Klebsiella pneumoniae [13]): 11 mm
zone of inhibition at 50 µg/mL (Fusarium oxysporum [14]): 10 mm
zone of inhibition at 200 µg/mL (Escherichia coli [15]): 17 mm
zone of inhibition at 100 µg/mL (Bacillus subtilis [16]): 9 mm
zone of inhibition at 100 µg/mL (Klebsiella pneumoniae [18]): 16 mm
zone of inhibition at 100 µg/mL (Staphylococcus aureus [19]): 12 mm
zone of inhibition at 100 µg/mL (Fusarium oxysporum [20]): 15 mm
zone of inhibition at 500 µg/mL (Rhizoctonia solani [21]): 31 mm
zone of inhibition at 50 µg/mL (Escherichia coli [22]): 10 mm
zone of inhibition at 500 µg/mL (Fusarium oxysporum [23]): 30 mm
zone of inhibition at 200 µg/mL (Rhizoctonia solani [24]): 19 mm
zone of inhibition at 200 µg/mL (Staphylococcus aureus [25]): 15 mm
zone of inhibition at 300 µg/mL (Aspergillus flavus [26]): 13 mm
zone of inhibition at 300 µg/mL (Bacillus subtilis [27]): 14 mm
zone of inhibition at 200 µg/mL (Bacillus subtilis [28]): 11 mm
zone of inhibition at 300 µg/mL (Rhizoctonia solani [29]): 24 mm
zone of inhibition at 300 µg/mL (Fusarium oxysporum [32]): 24 mm
zone of inhibition at 100 µg/mL (Escherichia coli [35]): 15 mm
zone of inhibition at 300 µg/mL (Escherichia coli [36]): 22 mm
zone of inhibition at 200 µg/mL (Aspergillus niger [37]): 15 mm
zone of inhibition at 300 µg/mL (Staphylococcus aureus [38]): 18 mm
zone of inhibition at 100 µg/mL (Aspergillus niger [39]): 12 mm
zone of inhibition at 100 µg/mL (Rhizoctonia solani [40]): 15 mm
zone of inhibition at 200 µg/mL (Fusarium oxysporum [42]): 18 mm
zone of inhibition at 500 µg/mL (Staphylococcus aureus [43]): 28 mm
zone of inhibition at 500 µg/mL (Bacillus subtilis [44]): 22 mm
zone of inhibition at 50 µg/mL (Bacillus subtilis [45]): 4 mm
zone of inhibition at 100 µg/mL (Aspergillus flavus [46]): 9 mm
zone of inhibition at 500 µg/mL (Aspergillus niger [47]): 24 mm
